# Source: publication PMC9652805, “Design, synthesis and evaluation of novel 1,2,4-triazole derivatives as promising anticancer agents” (BMC Chemistry, 2022)
# Key:
# [1] = system: MCF-7 cells (human breast cancer cell line); experiment: MTT cytotoxicity assay, MCF-7; type: cell-based; settings: mean ± SEM
# Method: (§1) Cell cultures were obtained from the human lung cancer cell line (A549), human cervical cancer cell line (Hela), human breast cancer cell line (MCF-7) and Normal cells isolated from human lung tissue (MRC-5) taken from the National Cell Bank of Iran (NCBI, Pasteur Institute, Tehran, Iran). All cells were cultured in RPMI-1640 medium supplemented with 10% FBS, antibiotics (penicillin 100 U/mL, streptomycin 100 µg/mL), at 37 °C in a humidified atmosphere containing 5% CO2.
# (§2) Cytotoxic activities of all the synthesized compounds were assessed by standard 3-(4,5-dimethylthiazol-yl)-2,5-diphenyl-tetrazolium bromide (MTT) assay. The assay was performed according to a known protocol. The cells were seeded and plated in 96-well microplates at a density of 1 × 10^4 cells per well in 180 μL complete culture media. After 24 h incubation, the cells were treated with […] of different concentrations of synthesized compounds ranging from 1 × 10^–4 to 1 × 10^–7 M at identical conditions in triplicates. After 72 h, media were replaced with 150 μL media containing 0.5 mg/mL of MTT solution [57]. The plates were incubated at 37 °C for additional four hours. Then, media containing MTT were discarded and 150 μL dimethylsulfoxide (DMSO, > 99%) was added to each well to dissolve the formazan crystals.
# [2] = system: Hela cells (human cervical cancer cell line); experiment: MTT cytotoxicity assay, Hela; type: cell-based; settings: 72 h, mean ± SEM
# Method: as §1, §2
# [3] = system: A549 cells (human lung cancer cell line); experiment: MTT cytotoxicity assay, A549; type: cell-based; settings: mean ± SEM
# Method: as §1, §2
# [4] = system: MRC-5 cells (normal cells from human lung tissue); experiment: MTT cytotoxicity assay, MRC-5 normal cell line (safety); type: cell-based; settings: mean ± SEM
# Method: as §1, §2
Structure (SMILES),"IC50 ([1]; Homo sapiens, MCF7, 72 h) [µM]","IC50 ([2]; Homo sapiens, HeLa) [µM]","IC50 ([3]; Homo sapiens, A549, 72 h) [µM]","IC50 ([4]; Homo sapiens, MRC5, 72 h) [µM]",melting point [°C],IC50 [2] [µM],IC50 ([1]; 72 h) [µM],IC50 ([3]; 72 h) [µM],IC50 ([4]; 72 h) [µM]
"O=C(c1ccccc1)C(c1ccccc1)C(C(=O)c1ccc(Cl)cc1Cl)n1cncn1 (stereo not shown) [10 k, 1-(2,4-dichlorophenyl)-3,4-diphenyl-2-(1H-1,2,4-triazol-1-yl) butane-1,4-dione]",44.1 ± 7.6,121 ± 6.8,102 ± 5.2,148 ± 6.1,178 to 181,–,–,–,–
"O=C(c1ccc(Cl)cc1Cl)C(C(c1ccccc1)c1ccccc1)n1cncn1 (stereo not shown) [Compound 7e, 1-(2,4-dichlorophenyl)-3,3-diphenyl-2-(1H-1,2,4-triazol-1-yl) propan-1-one]",4.7 ± 1.4,–,9.4 ± 1.8,27.8 ± 3.7,118 to 121,–,–,–,–
"O=C(c1ccc(Br)cc1)C(C(c1ccccc1)c1ccccc1)n1cncn1 (stereo not shown) [Compound 7d, 1-(4-bromophenyl)-3,3-diphenyl-2-(1H-1,2,4-triazol-1-yl) propan-1-one]",9.8 ± 0.9,< 12,43.4 ± 4.5,35.6 ± 2.7,110 to 113,12.1 ± 3.6,–,–,–
"O=C(c1ccccc1)C(c1ccccc1)C(C(=O)c1ccc(Cl)cc1)n1cncn1 (stereo not shown) [10 h, 1-(4-chlorophenyl)-3,4-diphenyl-2-(1H-1,2,4-triazol-1-yl) butane-1,4-dione]",89 ± 5.2,172 ± 7.1,112 ± 10.8,249 ± 5.8,174 to 176,–,–,–,–
"O=C(c1ccccc1)C(Cc1ccccc1)n1cncn1 (stereo not shown) [Compound 7a, 1,3-diphenyl-2-(1H-1,2,4-triazol-1-yl) propan-1-one]",154 ± 5.8,92.4 ± 7.3,150 ± 5.3,> 300,145 to 148,–,–,–,–
"O=C(c1ccccc1)C(c1ccccc1)C(C(=O)c1ccc(F)cc1)n1cncn1 (stereo not shown) [10 g, 1-(4-fluorophenyl)-3,4-diphenyl-2-(1H-1,2,4-triazol-1-yl) butane-1,4-dione]",93 ± 3.1,128 ± 6.1,150 ± 4.9,257 ± 4.3,154 to 157,–,–,–,–
"O=C(CC(C(=O)c1ccc(Cl)cc1Cl)n1cncn1)c1ccccc1 (stereo not shown) [Compound 10e, 1-(2,4-dichlorophenyl)-4-phenyl-2-(1H-1,2,4-triazol-1-yl) butane-1,4-dione]",45.4 ± 6.5,31.6 ± 4.2,104 ± 5.9,104 ± 7.3,153 to 156,–,–,–,–
"O=C(c1ccccc1)C(c1ccccc1)C(C(=O)c1ccc(Br)cc1)n1cncn1 (stereo not shown) [Compound 10i, 1-(4-bromophenyl)-3,4-diphenyl-2-(1H-1,2,4-triazol-1-yl) butane-1,4-dione]",72.2 ± 6.5,59.3 ± 2.7,135 ± 5.3,218 ± 3.2,168 to 171,–,–,–,–
"N.N.[Cl][Pt][Cl] [Cis platin, reference compound]",–,–,–,–,–,12.3 ± 3.3,36.5 ± 1.9,14.8 ± 0.27,45.2 ± 2.5
"O=C(c1ccccc1)C(c1ccccc1)C(C(=O)c1ccccc1)n1cncn1 (stereo not shown) [Compound 10f, 4-triphenyl-3-(1H-1,2,4-triazol-1-yl) butane-1,4-dione]",134 ± 4.5,82.7 ± 5.8,114 ± 7.6,289 ± 10.2,185 to 188,–,–,–,–
"O=C(c1ccccc1)C(c1ccccc1)C(C(=O)c1ccc(F)cc1F)n1cncn1 (stereo not shown) [Compound 10j, 1-(2,4-difluorophenyl)-3,4-diphenyl-2-(1H-1,2,4-triazol-1-yl) butane-1,4-dione]",45.4 ± 3.2,12.3 ± 1.9,101 ± 1.8,101 ± 1.3,114 to 117,–,–,–,–
"O=C(CC(C(=O)c1ccccc1)n1cncn1)c1ccccc1 (stereo not shown) [Compound 10a, 4-diphenyl-2-(1H-1,2,4-triazol-1-yl) butane-1,4-dione]",6.43,–,21.1 ± 4.2,21.7 ± 1.5,115 to 118,–,6.4 ± 1.7,–,–
"Brc1ccc(CC(C(c2ccccc2)c2ccccc2)n2cncn2)cc1 (stereo not shown) [Compound 8c, 1-(3-(4-bromophenyl)-1,1-diphenylpropan-2-yl)-1H-1,2,4-triazole]",52.8 ± 7.4,79.1 ± 2.5,104 ± 7.3,104 ± 7.3,88 to 91,–,–,–,–
"Clc1ccc(CC(C(c2ccccc2)c2ccccc2)n2cncn2)cc1 (stereo not shown) [Compound 8b, 1-(3-(4-chlorophenyl)-1,1-diphenylpropan-2-yl)-1H-1,2,4-triazole]",178 ± 2.5,198 ± 5.5,124 ± 3.4,279 ± 2.8,93 to 96,–,–,–,–
"c1ccc(CC(Cc2ccccc2)n2cncn2)cc1 [Compound 8a, 1-(1,3-diphenylpropan-2-yl)-1H-1,2,4-triazole]",158 ± 3.5,142 ± 2.1,127 ± 4.9,279.1 ± 2.5,81 to 83,–,–,–,–
"O=C(CC(C(=O)c1ccc(Br)cc1)n1cncn1)c1ccc(Cl)cc1 (stereo not shown) [Compound 10d, 1-(4-bromophenyl)-4-(4-chlorophenyl)-2-(1H-1,2,4-triazol-1-yl) butane-1,4-dione]",10.2 ± 2.1,< 12,16.5 ± 2.6,42.8 ± 2.1,162 to 165,9.8 ± 1.7,–,–,–
"O=C(c1ccc(Cl)cc1Cl)C(Cc1ccccc1)n1cncn1 (stereo not shown) [Compound 7b, 1-(2,4-dichlorophenyl)-3-phenyl-2-(1H-1,2,4-triazol-1-yl) propan-1-one]",23.4 ± 2.6,7.9 ± 3.1,75.8 ± 4.6,72.6 ± 3.4,121 to 123,–,–,–,–
"O=C(c1ccc(Cl)cc1)C(C(c1ccccc1)c1ccccc1)n1cncn1 (stereo not shown) [Compound 7c, 1-(4-chlorophenyl)-3,3-diphenyl-2-(1H-1,2,4-triazol-1-yl) propan-1-one]",60 ± 4.9,81.7 ± 6.3,177 ± 5.9,201 ± 9.5,140 to 142,–,–,–,–
"O=C(CC(C(=O)c1ccc(Cl)cc1)n1cncn1)c1ccccc1 (stereo not shown) [Compound 10b, 1-(4-chlorophenyl)-4-phenyl-2-(1H-1,2,4-triazol-1-yl) butane-1,4-dione]",62.6 ± 2.5,48.3 ± 4.1,110 ± 1.3,259 ± 8.3,131 to 133,–,–,–,–
"O=C(CC(C(=O)c1ccc(Br)cc1)n1cncn1)c1ccccc1 (stereo not shown) [Compound 10c, 1-(4-bromophenyl)-4-phenyl-2-(1H-1,2,4-triazol-1-yl) butane-1,4-dione]",17.3 ± 5.4,32.4 ± 6.9,104 ± 1.3,57.8 ± 1.7,149 to 151,–,–,–,–
